Legend:
[1] = tested on: T. brucei; settings: spiro carbocyclic 2,6-DKP-1-acetohydroxamic acids 1-5 reported previously; cited from earlier work
[2] = tested on: bloodstream form T. b. brucei (strain 221); experiment: Growth inhibition of cultured bloodstream-form T. brucei (resazurin); assay type: cell-based, Trypanosoma brucei; settings: for IC50 / IC90: cultured bloodstream-form Trypanosoma brucei, pH = 7.4, mean of triplicate ± SEM; for IC50: concentration inhibiting growth by 50%; for IC90: concentration inhibiting growth by 90%; for trypanocidal activity (in words): bloodstream-form T. brucei; for times more potent than the unsubstituted parent / times more potent than the nonmethylated counterpart / times more potent than 18: T. brucei IC50; for times more potent than the unsubstituted parent: 19 and 20 vs 18, 25 vs 24, 28 vs 27; for times more potent than the nonmethylated counterpart: 21 vs 18, 22 vs 19, 23 vs 20, 26 vs 24
Method: The new hydroxamic acid derivatives 18–28 were tested against bloodstream-form T. brucei in vitro. The results are presented in Table 1, and are expressed as IC50 and IC90 values. […]
Reference: minimized structure, heterocycle and adamantane cage).
IV. Experimental procedures for the biological evaluation of the compounds
Growth inhibition analysis was carried out using bloodstream form T. b. brucei (strain 221) cultured at
37 °C, as previously described.8 Briefly, experiments were performed using 96-well microtiter plates (200
μL volumes), with each assay initiated with 2.5 x10^4 parasites mL−1, and test compounds then added at 7
concentrations in a range that had been established in preliminary experiments to encompass both EC50
and EC90 values. Plates were incubated for 48 hours, resazurin (20 μL at 0.125 mg mL−1) was then added,
and the plates re-incubated for 16 hours. Fluorescence was determined using a BMG FLUOstar Omega plate
reader (excitation 545 nm, emission 590 nm), and the data analysed using GraphPad Prism 9.0 software.
The data are expressed as IC50/IC90 ± SD, and are the average of 3 independent replicates. […]

[3] = Cytotoxicity against cultured rat skeletal myoblast L6 cells (resazurin); assay type: cell-based; settings: rat, L6 rat skeletal myoblast cells, cultured rat skeletal myoblast L6 cells; mean of triplicate ± SEM
Method: (§1) To determine cytotoxicity, L6 cells (a rat myoblast line) were seeded at 1x104 mL−1 into 96-well microtiter plates (200 μL of growth medium), at a range of compound concentrations. After 6 days incubation at 37°C, 20 μL resazurin (0.125 mg mL−1) was added to each well. The plates were incubated for 6 hours, and fluorescence determined by plate reader, as above. […]

[4] = tested on: L6 cells (a rat myoblast line); experiment: as above; assay type: cell-based; settings: for Selectivity indices (SIs): ratio of the IC50 for L6 cells and T. brucei; for IC50: cultured rat skeletal myoblast L6 cells, mean of triplicate ± SEM
Method: as §1

| SMILES | IC50 [1] [nM] | IC50 ([2]; Trypanosoma brucei) [nM] | IC90 ([2]; Trypanosoma brucei) [nM] | Selectivity indices (SIs) [4] | also measured |
| --- | --- | --- | --- | --- | --- |
| O=C(CN1C(=O)CNC2(C1=O)C1CC3CC(C1)CC2C3)NO (stereo not drawn) [Compound 1a] | 90 | – | – | – | – |
| CN1CC(=O)N(CC(=O)NO)C(=O)C12C1CC3CC(C1)CC2C3 (stereo not drawn) [Compound 1b] | 193 | – | – | – | – |
| C[C@@H]1NC2(C(=O)N(CC(=O)NO)C1=O)C1CC3CC(C1)CC2C3 (stereo partly drawn) [Compound 1c] | 134 | – | – | – | – |
| CC(C)C[C@@H]1NC2(C(=O)N(CC(=O)NO)C1=O)C1CC3CC(C1)CC2C3 (stereo partly drawn) [Compound 1d] | 283 | – | – | – | – |
| CSCC[C@@H]1NC2(C(=O)N(CC(=O)NO)C1=O)C1CC3CC(C1)CC2C3 (stereo partly drawn) [Compound 1e] | 168 | – | – | – | – |
| O=C(CN1C(=O)[C@H](Cc2ccccc2)NC2(C1=O)C1CC3CC(C1)CC2C3)NO (stereo partly drawn) [Compound 1f] | 6.8 | – | – | – | – |
| O=C(CN1C(=O)[C@@H](Cc2ccccc2)NC2(C1=O)C1CC3CC(C1)CC2C3)NO (stereo partly drawn) [Compound 1g] | 9.1 | – | – | – | – |
| O=C(CN1C(=O)C(Cc2ccccc2)NC2(C1=O)C1CC3CC(C1)CC2C3)NO (stereo not drawn) [Compound 2] | 17 | – | – | – | – |
| O=C(CN1C(=O)C(Cc2ccc(Cl)cc2)NC2(C1=O)C1CC3CC(C1)CC2C3)NO (stereo not drawn) [Compound 3] | 32 | – | – | – | – |
| O=C(CN1C(=O)CNC2(CCCCCCC2)C1=O)NO [Compound 4a] | 300 | – | – | – | – |
| CN1CC(=O)N(CC(=O)NO)C(=O)C12CCCCCCC2 [Compound 4b] | 158 | – | – | – | – |
| C[C@@H]1NC2(CCCCCCC2)C(=O)N(CC(=O)NO)C1=O [Compound 4c] | 125 | – | – | – | – |
| CC(C)C[C@@H]1NC2(CCCCCCC2)C(=O)N(CC(=O)NO)C1=O [Compound 4d] | 72 | – | – | – | – |
| O=C(CN1C(=O)[C@H](Cc2ccccc2)NC2(CCCCCCC2)C1=O)NO [Compound 4f] | 29 | – | – | – | – |
| O=C(CN1C(=O)CNC2(CCCCCC2)C1=O)NO [Compound 5a] | 1870 | – | – | – | – |
| CN1CC(=O)N(CC(=O)NO)C(=O)C12CCCCCC2 [Compound 5b] | 285 | – | – | – | – |
| O=C(CNC(=O)CN1C(=O)CNC2(C1=O)C1CC3CC(C1)CC2C3)NO (stereo not drawn) [Compound 18] | – | 25000 ± 3000 | 36000 ± 2000 | – | fold loss in potency ([2]; T. brucei IC50 relative to compound 1a (insertion of acetamido portion)): 278 fold; trypanocidal activity (in words) [2]: marginal activity |
| CC(C)C[C@@H]1NC2(C(=O)N(CC(=O)NCC(=O)NO)C1=O)C1CC3CC(C1)CC2C3 (stereo partly drawn) [Compound 19] | – | 400 ± 90 | 980 ± 50 | 90 | times more potent than the unsubstituted parent [2]: 62 fold; IC50 at 6 days [3]: 35000 ± 4000 nM |
| Cl.O=C(CNC(=O)CN1C(=O)[C@H](Cc2ccccc2)NC2(C1=O)C1CC3CC(C1)CC2C3)NO (stereo partly drawn) [Compound 20.HCl] | – | – | – | 16 | IC50 [2]: 1530 nM; IC90 [2]: 4260 nM; IC50 [4]: 25000 nM |
| O=C(CNC(=O)CN1C(=O)[C@H](Cc2ccccc2)NC2(C1=O)C1CC3CC(C1)CC2C3)NO (stereo partly drawn) [Compound 20] | – | 1230 ± 200 | 4880 ± 740 | 24 | times more potent than the unsubstituted parent [2]: 20 fold; IC50 at 6 days [3]: 29000 ± 2000 nM |
| CN(CC(=O)NO)C(=O)CN1C(=O)CNC2(C1=O)C1CC3CC(C1)CC2C3 (stereo not drawn) [Compound 21] | – | 1330 ± 110 | 3420 ± 850 | 285 | times more potent than the nonmethylated counterpart [2]: 19 fold; IC50 at 6 days [3]: 376000 ± 7000 nM |
| CC(C)C[C@@H]1NC2(C(=O)N(CC(=O)N(C)CC(=O)NO)C1=O)C1CC3CC(C1)CC2C3 (stereo partly drawn) [Compound 22] | – | 34 ± 2 | 57 ± 5 | 940 | times more potent than 18 [2]: 735 fold; times more potent than the nonmethylated counterpart [2]: 12 fold; IC50 at 6 days [3]: 32000 ± 3000 nM |
| CN(CC(=O)NO)C(=O)CN1C(=O)[C@H](Cc2ccccc2)NC2(C1=O)C1CC3CC(C1)CC2C3 (stereo partly drawn) [Compound 23] | – | 53 ± 11 | 81 ± 3 | 470 | times more potent than 18 [2]: 472 fold; times more potent than the nonmethylated counterpart [2]: 23 fold; IC50 at 6 days [3]: 25000 ± 2000 nM |
| O=C(CNC(=O)CN1C(=O)CNC2(CCCCCCC2)C1=O)NO [Compound 24] | – | > 300000 | > 300000 | – | trypanocidal activity (in words) [2]: inactive |
| CC(C)C[C@@H]1NC2(CCCCCCC2)C(=O)N(CC(=O)NCC(=O)NO)C1=O.Cl [Compound 25.HCl] | – | – | – | 295 | IC50 [2]: 850 nM; IC90 [2]: 1710 nM; IC50 [4]: 249000 nM |
| CC(C)C[C@@H]1NC2(CCCCCCC2)C(=O)N(CC(=O)NCC(=O)NO)C1=O [Compound 25] | – | 1190 ± 280 | 1900 ± 100 | 185 | times more potent than the unsubstituted parent [2]: > 252 fold; IC50 at 6 days [3]: 223000 ± 28000 nM |
| CN(CC(=O)NO)C(=O)CN1C(=O)CNC2(CCCCCCC2)C1=O [Compound 26] | – | 38000 ± 8000 | – | – | times more potent than the nonmethylated counterpart [2]: > 8 fold |
| O=C(CNC(=O)CN1C(=O)CNC2(CCCCCC2)C1=O)NO [Compound 27] | – | > 30000 | – | – | trypanocidal activity (in words) [2]: inactive |
| CC(C)C[C@@H]1NC2(CCCCCC2)C(=O)N(CC(=O)NCC(=O)NO)C1=O [Compound 28] | – | 1650 ± 130 | 3330 ± 130 | 235 | times more potent than the unsubstituted parent [2]: > 18 fold; IC50 at 6 days [3]: 390000 ± 6000 nM |
